From patent publication US11208400B2, “Substituted 6-(1H-pyrazol-1-yl)pyrimidin-4-amine derivatives and uses thereof” (Bayer Aktiengesellschaft, priority 2016, dated 2021)

What follows are molecules tested against T1, human Npt2a (Homo sapiens, UniProt Q06495) (assay: Npt2a activity cell based assay, membrane potential dye, CHO T-REx hNpt2a cells). Details: doxycycline-induced, depolarization by sodium phosphate influx, average or median values if tested more than once.
T1 construct: expressed in transfected cells
T1 sequence (Q06495 1-639): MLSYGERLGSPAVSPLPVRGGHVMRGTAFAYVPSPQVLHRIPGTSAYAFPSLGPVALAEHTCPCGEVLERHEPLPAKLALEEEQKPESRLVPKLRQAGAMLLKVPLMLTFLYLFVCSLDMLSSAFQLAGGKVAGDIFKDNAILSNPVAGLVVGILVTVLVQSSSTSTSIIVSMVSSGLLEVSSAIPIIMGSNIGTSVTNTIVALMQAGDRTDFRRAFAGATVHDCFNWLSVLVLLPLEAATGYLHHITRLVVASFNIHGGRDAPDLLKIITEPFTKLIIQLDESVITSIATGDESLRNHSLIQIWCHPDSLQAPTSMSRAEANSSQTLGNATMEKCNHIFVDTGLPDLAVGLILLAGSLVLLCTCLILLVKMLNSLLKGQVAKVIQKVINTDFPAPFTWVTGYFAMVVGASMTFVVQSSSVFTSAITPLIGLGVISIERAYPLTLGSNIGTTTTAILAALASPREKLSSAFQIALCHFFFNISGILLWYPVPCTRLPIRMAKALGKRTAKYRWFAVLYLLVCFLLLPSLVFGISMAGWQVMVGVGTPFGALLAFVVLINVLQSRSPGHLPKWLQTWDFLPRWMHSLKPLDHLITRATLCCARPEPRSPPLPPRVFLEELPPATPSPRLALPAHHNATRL
How it was run: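 Cells were doxycycline-induced CHO T-REx hNpt2a, dye-loaded and pretreated 5 min at RT with 1 nM–50 μM compound in Na-free pH 7.4 buffer. IC50 was fit to the post/pre-trigger fluorescence ratio.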

| SMILES | IC50 |
| --- | --- |
| Cc1nn(-c2cc(Nc3c(C)c(-c4ccc(F)cc4F)nn3CC3CC3)ncn2)c(C)c1C(C)(C)O [Example 368, 2-[1-(6-{[1-(cyclopropylmethyl)-3-(2,4-difluorophenyl)-4-methyl-1H-pyrazol-5-yl]amino}pyrimidin-4-yl)-3,5-dimethyl-1H-pyrazol-4-yl]propan-2-ol] | 7 nM |
| Cc1nnc(-c2c(C)nn(-c3cc(Nc4c(C)c(-c5ccc(F)cc5)nn4CC4CC4)ncn3)c2C)o1 [Example 372, N-[1-(cyclopropylmethyl)-3-(4-fluorophenyl)-4-methyl-1H-pyrazol-5-yl]-6-[3,5-dimethyl-4-(5-methyl-1,3,4-oxadiazol-2-yl)-1H-pyrazol-1-yl]pyrimidin-4-amine] | 7 nM |
| Cc1nn(-c2cc(Nc3c(C)c(-c4ccc(C#N)cc4)nn3CC3CC3)ncn2)c(C)c1C(F)(F)F [Example 373, 4-[1-(cyclopropylmethyl)-5-({6-[3,5-dimethyl-4-(trifluoromethyl)-1H-pyrazol-1-yl]pyrimidin-4-yl}amino)-4-methyl-1H-pyrazol-3-yl]benzonitrile] | 5 nM |
| Cc1nn(-c2cc(Nc3c(C)c(-c4ccc(OC(F)(F)F)cc4)nn3C)ncn2)c(C)c1C(C)(C)O [Example 377, 2-{1-[6-({1,4-dimethyl-3-[4-(trifluoromethoxy)phenyl]-1H-pyrazol-5-yl}amino)pyrimidin-4-yl]-3,5-dimethyl-1H-pyrazol-4-yl}propan-2-ol] | 205 nM |
| Cc1nn(-c2cc(Nc3c(C)c(-c4ccc(F)cc4F)nn3C)ncn2)c(C)c1C(C)(C)O [Example 378, 2-[1-(6-{[3-(2,4-difluorophenyl)-1,4-dimethyl-1H-pyrazol-5-yl]amino}pyrimidin-4-yl)-3,5-dimethyl-1H-pyrazol-4-yl]propan-2-ol] | 2550 nM |
| Cc1nn(-c2cc(Nc3c(C)c(-c4ccc(C(F)(F)F)cc4)nn3C)ncn2)c(C)c1C(C)(C)O [Example 379, 2-{1-[6-({1,4-dimethyl-3-[4-(trifluoromethyl)phenyl]-1H-pyrazol-5-yl}amino)pyrimidin-4-yl]-3,5-dimethyl-1H-pyrazol-4-yl}propan-2-ol] | 880 nM |
| Cc1nn(-c2cc(Nc3c(C)c(-c4ccncc4)nn3CC3CC3)ncn2)c(C)c1C(C)(C)O [Example 380, 2-[1-(6-{[1-(cyclopropylmethyl)-4-methyl-3-(pyridin-4-yl)-1H-pyrazol-5-yl]amino}pyrimidin-4-yl)-3,5-dimethyl-1H-pyrazol-4-yl]propan-2-ol] | 170 nM |
| Cc1nn(-c2cc(Nc3c(C)c(-c4ccc(F)cc4)nn3CC3CC3)ncn2)c(C)c1C(F)(F)F [Example 381, N-[1-(cyclopropylmethyl)-3-(4-fluorophenyl)-4-methyl-1H-pyrazol-5-yl]-6-[3,5-dimethyl-4-(trifluoromethyl)-1H-pyrazol-1-yl]pyrimidin-4-amine] | 8 nM |
| Cc1nn(-c2cc(Nc3c(C)c(-c4ccc(F)cc4)nn3C)ncn2)c(C)c1C(F)(F)F [Example 382, 6-[3,5-dimethyl-4-(trifluoromethyl)-1H-pyrazol-1-yl]-N-[3-(4-fluorophenyl)-1,4-dimethyl-1H-pyrazol-5-yl]pyrimidin-4-amine] | 35 nM |
| Cc1nn(-c2cc(Nc3nn(C)c(-c4ccc(F)cc4)c3C)ncn2)c(C)c1C(F)(F)F [Example 383, 6-[3,5-dimethyl-4-(trifluoromethyl)-1H-pyrazol-1-yl]-N-[5-(4-fluorophenyl)-1,4-dimethyl-1H-pyrazol-3-yl]pyrimidin-4-amine] | 5 nM |
| Cc1nn(-c2cc(Nc3c(C)c(-c4ccncc4)nn3CC3CC3)ncn2)c(C)c1C(F)(F)F [Example 384, N-[1-(cyclopropylmethyl)-4-methyl-3-(pyridin-4-yl)-1H-pyrazol-5-yl]-6-[3,5-dimethyl-4-(trifluoromethyl)-1H-pyrazol-1-yl]pyrimidin-4-amine] | 30 nM |
| COc1c(C)nn(-c2cc(Nc3c(C)c(-c4ccc(F)cc4)nn3CC3CC3)ncn2)c1C [Example 385, N-[1-(cyclopropylmethyl)-3-(4-fluorophenyl)-4-methyl-1H-pyrazol-5-yl]-6-(4-methoxy-3,5-dimethyl-1H-pyrazol-1-yl)pyrimidin-4-amine] | 4 nM |
| CCc1c(-c2ccc(F)cc2)nn(Cc2nnn(C)n2)c1Nc1cc(-n2nc(C)cc2C)ncn1 [Example 388, 6-(3,5-dimethyl-1H-pyrazol-1-yl)-N-{4-ethyl-3-(4-fluorophenyl)-1-[(2-methyl-2H-tetrazol-5-yl)methyl]-1H-pyrazol-5-yl}pyrimidin-4-amine] | 64 nM |
| Cc1ccc(-c2nn(CC3CC3)c(Nc3cc(-n4nc(C)c(C(C)(C)O)c4C)ncn3)c2C)cc1 [Example 389, 2-[1-(6-{[1-(cyclopropylmethyl)-4-methyl-3-(4-methylphenyl)-1H-pyrazol-5-yl]amino}pyrimidin-4-yl)-3,5-dimethyl-1H-pyrazol-4-yl]propan-2-ol] | 130 nM |
| Cc1nn(-c2cc(Nc3c(C)c(-c4ccc(F)cc4)nn3CC3CC3)ncn2)c(C)c1CN1CC(F)(F)C1 [Example 390, N-[1-(cyclopropylmethyl)-3-(4-fluorophenyl)-4-methyl-1H-pyrazol-5-yl]-6-{4-[(3,3-difluoroazetidin-1-yl)methyl]-3,5-dimethyl-1H-pyrazol-1-yl}pyrimidin-4-amine] | 25 nM |
| CCc1c(-c2ccc(F)cc2)nn(Cc2nnnn2C)c1Nc1cc(-n2nc(C)cc2C)ncn1 [Example 391, 6-(3,5-dimethyl-1H-pyrazol-1-yl)-N-{4-ethyl-3-(4-fluorophenyl)-1-[(1-methyl-1H-tetrazol-5-yl)methyl]-1H-pyrazol-5-yl}pyrimidin-4-amine] | 13 nM |
| Cc1nn(-c2cc(Nc3c(C)nn(-c4ccc(F)cc4)c3C)ncn2)c(C)c1CC(C)(C)O [Example 393, 1-[1-(6-{[1-(4-fluorophenyl)-3,5-dimethyl-1H-pyrazol-4-yl]amino}pyrimidin-4-yl)-3,5-dimethyl-1H-pyrazol-4-yl]-2-methylpropan-2-ol] | 180 nM |
| Cc1nn(-c2cc(Nc3c(C)c(-c4ccc(F)cc4)nn3CC3CC3)ncn2)c2c1C(=O)CC2 [Example 394, 1-(6-{[1-(cyclopropylmethyl)-3-(4-fluorophenyl)-4-methyl-1H-pyrazol-5-yl]amino}pyrimidin-4-yl)-3-methyl-5,6-dihydrocyclopenta[c]pyrazol-4(1H)-one] | 71 nM |
| Cc1c(-c2ccc(F)cc2)nn(CC2CC2)c1Nc1cc(-n2nc3c(c2C)C(=O)CC3)ncn1 [Example 395, 2-(6-{[1-(cyclopropylmethyl)-3-(4-fluorophenyl)-4-methyl-1H-pyrazol-5-yl]amino}pyrimidin-4-yl)-3-methyl-5,6-dihydrocyclopenta[c]pyrazol-4(2H)-one] | 19 nM |
| Cc1nn(-c2cc(Nc3c(C)c(-c4ccc(C(F)F)cc4)nn3CC3CC3)ncn2)c(C)c1C(C)(C)O [Example 396, 2-{1-[6-({1-(cyclopropylmethyl)-3-[4-(difluoromethyl)phenyl]-4-methyl-11H-pyrazol-5-yl}amino)pyrimidin-4-yl]-3,5-dimethyl-1H-pyrazol-4-yl}propan-2-ol] | 16 nM |
| Cc1ccc(-c2nn(CC3CC3)c(Nc3cc(-n4nc(C)c(Cl)c4C)ncn3)c2C)cn1 [Example 397, 6-(4-chloro-3,5-dimethyl-1H-pyrazol-1-yl)-N-[1-(cyclopropylmethyl)-4-methyl-3-(6-methylpyridin-3-yl)-1H-pyrazol-5-yl]pyrimidin-4-amine] | 92 nM |
| Cc1nn(-c2cc(Nc3c(C)c(-c4ccc(OC(F)F)cc4)nn3CC3CC3)ncn2)c(C)c1Cl [Example 398, 6-(4-chloro-3,5-dimethyl-1H-pyrazol-1-yl)-N-{1-(cyclopropylmethyl)-3-[4-(difluoromethoxy)phenyl]-4-methyl-1H-pyrazol-5-yl}pyrimidin-4-amine] | 25 nM |
| CSc1c(C)nn(-c2cc(Nc3c(C)c(-c4ccc(F)cc4)nn3CC3CC3)ncn2)c1C [Example 399, N-[1-(cyclopropylmethyl)-3-(4-fluorophenyl)-4-methyl-1H-pyrazol-5-yl]-6-[3,5-dimethyl-4-(methylsulfanyl)-1H-pyrazol-1-yl]pyrimidin-4-amine] | 6 nM |
| Cc1cc(C)n(-c2cc(Nc3nn(C)c(-c4ccc(F)cc4)c3OC(F)F)ncn2)n1 [Example 400, N-[4-(difluoromethoxy)-5-(4-fluorophenyl)-1-methyl-1H-pyrazol-3-yl]-6-(3,5-dimethyl-1H-pyrazol-1-yl)pyrimidin-4-amine] | 6 nM |
| Cc1nn(-c2cc(Nc3c(C)c(-c4ccc(F)cc4)nn3CC3CC3)ncn2)c(C)c1[S+](C)[O-] (centres unmarked) [Example 401, N-[1-(cyclopropylmethyl)-3-(4-fluorophenyl)-4-methyl-1H-pyrazol-5-yl]-6-[3,5-dimethyl-4-(methylsulfinyl)-1H-pyrazol-1-yl]pyrimidin-4-amine] | 1400 nM |
| Cc1nn(-c2cc(Nc3c(C)c(-c4ccc(F)cc4)nn3CC3CC3)ncn2)c(C)c1C(=O)N(C)C [Example 402, 1-(6-{[1-(cyclopropylmethyl)-3-(4-fluorophenyl)-4-methyl-1H-pyrazol-5-yl]amino}pyrimidin-4-yl)-N,N,3,5-tetramethyl-1H-pyrazole-4-carboxamide] | 55 nM |
